Here are results for one sequence from patent US7125847B1, “Mechanically activated channel blocker” (priority 2000, dated 2006).

Assay [1] relates to whole-cell swelling-activated currents in adult rat astrocytes. Kind of assay: Whole-cell (Nystatin perforated patch) currents in adult rat astrocytes, isotonic and hypotonic swelling. The class given is cell-based. The settings on record: for estimated reduction in swelling-activated current: relative to mean before and after controls. The procedure:
It is considered that part of the swelling activated currents are attributable to SACs. To illustrate this embodiment, adult rat astrocytes were cultured as described above. Whole cell current was measured by the Nystatin perforated patch. Bath saline was the same as in Example 2. Pipette saline consisted of: KCl 80 mM, K2SO4 30 mM, NaCl 10 mM, MgSO4 3 mM, CaCl20.13 mM, EGTA 0.23 mM and Hepes 10 mM, pH 7.3. Nystatin was dissolved in pipette saline to a final concentration of […]. After patch formation, access resistance was allowed to drop to ˜15 MW (uncompensated), after which the series resistance compensation was set at ˜65%, and prediction was set to ˜75%. Whole cell capacitance measurements ranged from ˜25–50 pF. Whole cell currents were monitored by either a voltage step protocol shown in FIG. 7, or by 600 ms voltage ramps. During hypotonic swelling the cell was perfused initially with isotonic saline (bath saline with 160 mM mannitol replacing 80 mM NaCl) before switching to hypotonic saline (isotonic saline minus 140 mM mannitol). The BPS-8 perfusion system was used to rapidly (<200 ms) change the bathing solution. Peak currents were measured at 3–5 ms into voltage steps.

For another assay, the system named is perfused rabbit hearts. The assay is described as follows: Stretch-induced atrial fibrillation in perfused rabbit hearts. The source says:
To illustrate this embodiment, fibrillation was initiated in perfused rabbit hearts with a burst of high-frequency stimulation FIG. 10A. Stretching the atrium chamber increased the incidence and duration of fibrillation (FIG. 10A–C). At pressures above 12 cm H2O, the fibrillation became sustained and the probability of sustained fibrillation (for, longer than 60 s) approached unity. The probability of inducing fibrillation was increased by stimulating the heart with a short burst of high-frequency pacing before each measurement (arrow in FIG. 10b). Perfusion with 170 nM GsMtx-4 suppressed both the incidence (FIG. 10c) and duration (FIG. 10d) of fibrillation in all hearts (n=10).

“Also recorded” adds a separate entry of the source.

“GCLEFWWKCNPNDDKCCRPKLKCSKLFKLCNFSFGK [GsMTx-4]”: the “change in reversal potential of swelling-activated current” value in assay [1] (5 μM GsMTx-4) is reported as “+2 mV”. Also, the “effect on whole-cell currents in isotonic saline” value in assay [1] (5 μM GsMTx-4, 30 to 120 s after perfusion) is on record as “no significant difference”. The “reduction of peak swelling-activated current response” value in assay [1] (5 μM, 30 seconds after hypotonic exposure) is on record as “about 75%”. For the same sequence, the “estimated reduction in swelling-activated current” value was about 38% in assay [1] (5 μM, at +100 mV) and about 48% in assay [1] (5 μM, at −100 mV). In addition, the duration of fibrillation result in the assay on perfused rabbit hearts (170 nM perfusion) is “decreased the average time to spontaneous recovery from AF; also recorded: suppressed”. Moreover, in the assay with perfused rabbit hearts (170 nM perfusion, n=10 hearts), the incidence of fibrillation result was “suppressed”. Also, the “stretch-induced shortening of the refractory period” value in the assay on perfused rabbit hearts (170 nM, n=10) is listed as “did not block”. Also, the sustained fibrillation result with perfused rabbit hearts (170 nM, pressures below 17.5 cm H2O) is reported as “completely inhibited”.
